Reference: US20150259300A1, “4-(ORTHO)-FLUOROPHENYL-5-FLUOROPYRIMIDIN-2-YL AMINES CONTAINING A SULFONE GROUP” (BAYER PHARMA AKTIENGESELLSCHAFT, priority 2012, published 2015)

What was measured:
CDK9/CycT1 = target: T1, CDK9/CycT1 (Homo sapiens, UniProt P50750); assay: CDK9/CycT1 kinase assay (TR-FRET, Method 1a); type: biochemical; conditions: for IC50: Method 1a, 10 μM ATP; for Selectivity CDK9/CDK2: derived from Methods 1a. and 2.
T1 construct: Recombinant full-length His-tagged human CDK9 and CycT1; His; purchased Invitrogen PV4131; host or cells: insect cells
T1 sequence (P50750 whole entry): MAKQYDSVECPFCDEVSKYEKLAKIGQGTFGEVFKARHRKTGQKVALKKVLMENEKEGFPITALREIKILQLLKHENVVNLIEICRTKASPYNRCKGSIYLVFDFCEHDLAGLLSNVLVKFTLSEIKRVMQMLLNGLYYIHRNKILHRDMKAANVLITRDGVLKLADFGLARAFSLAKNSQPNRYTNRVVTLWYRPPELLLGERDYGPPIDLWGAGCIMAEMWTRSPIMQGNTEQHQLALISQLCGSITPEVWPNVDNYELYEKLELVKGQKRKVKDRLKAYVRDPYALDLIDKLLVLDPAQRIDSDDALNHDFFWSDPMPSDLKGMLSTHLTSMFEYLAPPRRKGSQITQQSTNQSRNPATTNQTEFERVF
T1 sequence (O60563 whole entry partner): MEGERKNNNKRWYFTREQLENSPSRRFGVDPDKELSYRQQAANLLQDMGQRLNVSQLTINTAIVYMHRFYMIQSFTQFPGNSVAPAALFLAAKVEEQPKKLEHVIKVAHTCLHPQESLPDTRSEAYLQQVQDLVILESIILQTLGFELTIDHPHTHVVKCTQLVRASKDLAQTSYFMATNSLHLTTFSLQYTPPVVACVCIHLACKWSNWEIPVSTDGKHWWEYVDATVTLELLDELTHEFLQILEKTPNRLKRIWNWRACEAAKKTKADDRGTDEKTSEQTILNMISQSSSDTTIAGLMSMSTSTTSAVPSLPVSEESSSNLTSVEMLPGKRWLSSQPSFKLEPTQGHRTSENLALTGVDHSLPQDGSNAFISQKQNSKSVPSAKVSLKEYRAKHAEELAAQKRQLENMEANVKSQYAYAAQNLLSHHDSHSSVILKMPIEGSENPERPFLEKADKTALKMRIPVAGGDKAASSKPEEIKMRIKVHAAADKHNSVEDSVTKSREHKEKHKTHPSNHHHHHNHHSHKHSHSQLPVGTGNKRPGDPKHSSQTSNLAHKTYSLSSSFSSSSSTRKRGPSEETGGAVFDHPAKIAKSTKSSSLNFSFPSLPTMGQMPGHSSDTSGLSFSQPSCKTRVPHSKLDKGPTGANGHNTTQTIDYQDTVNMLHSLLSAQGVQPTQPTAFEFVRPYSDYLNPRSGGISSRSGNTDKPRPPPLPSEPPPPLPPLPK
From the text: 1a. CDK9/CyeT1 Kinase Assay:
CDK9/CycT1-inhibitory activity of compounds of the present invention was quantified employing the CDK9/CycT1 TR-FRET assay as described in the following paragraphs:
Recombinant full-length His-tagged human CDK9 and CycT1, expressed in insect cells and purified by Ni-NTA affinity chromatography, were purchased from Invitrogen (Cat. No PV4131). As substrate for the kinase reaction biotinylated peptide biotin-Ttds-YISPLKSPYKISEG (C-terminus in amid form) was used which can be purchased e.g. form the company JERINI Peptide Technologies (Berlin, Germany). For the assay 50 nl of a 100 fold concentrated solution of the test compound in DMSO was pipetted into a black low volume 384 well microtiter plate (Greiner Bio-One, Frickenhausen, Germany), 2 μl of a solution of CDK9/CycT1 in aqueous assay buffer [50 mM Tris/HCl pH 8.0, 10 mM MgCl2, 1.0 mM dithiothreitol, 0.1 mM sodium ortho-vanadate, 0.01% (v/v) Nonidet-P40 (Sigma)] were added and the mixture was incubated for 15 min at 22° C. to allow pre-binding of the test compounds to the enzyme before the start of the kinase reaction. Then the kinase reaction was started by the addition of 3 μl of a solution of adenosine-tri-phosphate (ATP, 16.7 μM=>final conc. in the 5 μl assay volume is 10 μM) and substrate (1.67 μM=>final conc. in the 5 μl assay volume is 1 μM) in assay buffer and the resulting mixture was incubated for a reaction time of 25 min at 22° C. The concentration of CDK9/CycT1 was adjusted depending of the activity of the enzyme lot and was chosen appropriate to have the assay in the linear range, typical concentrations were in the range of 1 μg/ml. The reaction was stopped by the addition of 5 μl of a solution of TR-FRET detection reagents (0.2 μM streptavidine-XL665 [Cisbio Bioassays, Codolet, France] and 1 nM anti-RB(pSer807/pSer811)-antibody from BD Pharmingen [#558389] and 1.2 nM LANCE EU-W1024 labeled anti-mouse IgG antibody [Perkin-Elmer, product no. AD0077]) in an aqueous EDTA-solution (100 mM EDTA, 0.2% (w/v) bovine serum albumin in 100 mM HEPES/NaOH pH 7.0).
(§1) The resulting mixture was incubated 1 h at 22° C. to allow the formation of complex between the phosphorylated biotinylated peptide and the detection reagents. Subsequently the amount of phosphorylated substrate was evaluated by measurement of the resonance energy transfer from the Eu-chelate to the streptavidine-XL. Therefore, the fluorescence emissions at 620 nm and 665 nm after excitation at 350 nm was measured in a HTRF reader, e.g. a Rubystar (BMG Labtechnologies, Offenburg, Germany) or a Viewlux (Perkin-Elmer). The ratio of the emissions at 665 nm and at […] was taken as the measure for the amount of phosphorylated substrate. The data were normalised (enzyme reaction without inhibitor=0% inhibition, all other assay components but no enzyme=100% inhibition).

CDK2/CycE = target: T2, CDK2/CycE (Homo sapiens, UniProt P24941); assay: CDK2/CycE kinase assay (TR-FRET, Method 2); type: biochemical; conditions: Method 2, 10 μM ATP
T2 construct: GST; purchased ProQinase GmbH (Freiburg, Germany); host or cells: insect cells (Sf9)
From the text: 2. CDK2/CycE Kinase Assay:
CDK2/CycE -inhibitory activity of compounds of the present invention was quantified employing the CDK2/CycE TR-FRET assay as described in the following paragraphs:
Recombinant fusion proteins of GST and human CDK2 and of GST and human CycE, expressed in insect cells (Sf9) and purified by Glutathion-Sepharose affinity chromatography, were purchased from ProQinase GmbH (Freiburg, Germany). As substrate for the kinase reaction biotinylated peptide biotin-Ttds-YISPLKSPYKISEG (C-terminus in amid form) was used which can be purchased e.g. form the company JERINI Peptide Technologies (Berlin, Germany).
For the assay 50 nl of a 100 fold concentrated solution of the test compound in DMSO was pipetted into a black low volume 384 well microtiter plate (Greiner Bio-One, Frickenhausen, Germany), 2 μl of a solution of CDK2/CycE in aqueous assay buffer [50 mM Tris/HCl pH 8.0, 10 mM MgCl2, 1.0 mM dithiothreitol, 0.1 mM sodium ortho-vanadate, 0.01% (v/v) Nonidet-P40 (Sigma)] were added and the mixture was incubated for […] at 22° C. to allow pre-binding of the test compounds to the enzyme before the start of the kinase reaction. Then the kinase reaction was started by the addition of 3 μl of a solution of adenosine-tri-phosphate (ATP, 16.7 μM=>final conc. in the 5 μl assay volume is 10 μM) and substrate (1.25 μM=>final conc. in the 5 μl assay volume is 0.75 μM) in assay buffer and the resulting mixture was incubated for a reaction time of […] at 22° C. The concentration of CDK2/CycE was adjusted depending of the activity of the enzyme lot and was chosen appropriate to have the assay in the linear range, typical concentrations were in the range of 130 ng/ml. The reaction was stopped by the addition of 5 μl of a solution of TR-FRET detection reagents (0.2 μM streptavidine-XL665 [Cisbio Bioassays, Codolet, France] and 1 nM anti-RB(pSer807/pSer811)-antibody from BD Pharmingen [#558389] and 1.2 nM LANCE EU-W1024 labeled anti-mouse IgG antibody [Perkin-Elmer, product no. AD0077]) in an aqueous EDTA-solution (100 mM EDTA, 0.2% (w/v) bovine serum albumin in 100 mM HEPES/NaOH pH 7.0).
as §1, with “TR-FRET” for “HTRF”

Row | Compound | IC50 (CDK9/CycT1) | Selectivity CDK9/CDK2 (CDK9/CycT1) | IC50 (CDK2/CycE)
1 | CC(C)S(=O)(=O)Cc1cccc(Nc2ncc(F)c(-c3ccc(F)cc3F)n2)c1 [Example 2, 4-(2,4-Difluorophenyl)-5-fluoro-N-{3-[(propan-2-ylsulfonyl)methyl]phenyl}pyrimidin-2-amine] | 50 nM | 24 | 1200 nM
2 | CC(C)(C)S(=O)(=O)Cc1cccc(Nc2ncc(F)c(-c3ccc(F)cc3F)n2)c1 [Example 3, N-{3-[(tert-Butylsulfonyl)methyl]phenyl}-4-(2,4-difluorophenyl)-5-fluoropyrimidin-2-amine] | 110 nM | 10 | 1000 nM
3 | COCCS(=O)(=O)Cc1cccc(Nc2ncc(F)c(-c3ccc(F)cc3F)n2)c1 [Example 4, 4-(2,4-Difluorophenyl)-5-fluoro-N-(3-{[(2-methoxyethyl)sulfonyl]methyl}phenyl)pyrimidin-2-amine] | 130 nM | 20 | 2600 nM
4 | CS(=O)(=O)Cc1cccc(Nc2ncc(F)c(-c3ccc(F)cc3F)n2)c1 [Example 5, 4-(2,4-Difluorophenyl)-5-fluoro-N-{3-[(methylsulfonyl)methyl]phenyl}pyrimidin-2-amine] | 51 nM | 9.1 | 470 nM
5 | CCCS(=O)(=O)Cc1cccc(Nc2ncc(F)c(-c3ccc(F)cc3F)n2)c1 [Example 8, 4-(2,4-difluorophenyl)-5-fluoro-N-{3-[(propylsulfonyl)methyl]phenyl}pyrimidin-2-amine] | 39 nM | 15 | 570 nM
6 | CS(=O)(=O)Cc1cc(F)cc(Nc2ncc(F)c(-c3ccc(F)cc3F)n2)c1 [Example 10, 4-(2,4-Difluorophenyl)-5-fluoro-N-{3-fluoro-5-[(methylsulfonyl)methyl]phenyl}pyrimidin-2-amine] | 130 nM | 28 | 5800 nM
7 | CS(=O)(=O)Cc1cc(F)cc(Nc2ncc(F)c(-c3cc(F)c(F)cc3F)n2)c1 [Example 11, 5-Fluoro-N-{3-fluoro-5-[(methylsulfonyl)methyl]phenyl}-4-(2,4,5-trifluorophenyl)pyrimidin-2-amine] | 74 nM | >270 | > 20000 nM

Stronger by IC50 (CDK9/CycT1), values ahead:

Row | IC50 (CDK9/CycT1) | Selectivity CDK9/CDK2 (CDK9/CycT1) | IC50 (CDK2/CycE) | Compound
8 | 14 nM | 122 | 1760 nM | CS(=O)(=O)Cc1cc(Nc2ncc(F)c(-c3ccc(F)cc3F)n2)cc(S(F)(F)(F)(F)F)c1 [Example 6, 4-(2,4-Difluorophenyl)-5-fluoro-N-{3-[(methylsulfonyl)methyl]-5-(pentafluoro-λ^6-sulfanyl)phenyl}pyrimidin-2-amine]
9 | 13 nM | 32 | 410 nM | O=S(=O)(Cc1cccc(Nc2ncc(F)c(-c3ccc(F)cc3F)n2)c1)C1CC1 [Example 9, N-{3-[(Cyclopropylsulfonyl)methyl]phenyl}-4-(2,4-difluorophenyl)-5-fluoropyrimidin-2-amine]
10 | 25 nM | 14 | 350 nM | CS(=O)(=O)Cc1cc(F)cc(Nc2ncc(F)c(-c3ccc(F)c(F)c3F)n2)c1 [Example 12, 5-fluoro-N-{3-fluoro-5-[(methylsulfonyl)methyl]phenyl}-4-(2,3,4-trifluorophenyl)pyrimidin-2-amine]
11 | 13 nM | 44 | 580 nM | CCCS(=O)(=O)Cc1cc(F)cc(Nc2ncc(F)c(-c3ccc(F)cc3F)n2)c1 [Example 13, 4-(2,4-Difluorophenyl)-5-fluoro-N-{3-fluoro-5-[(propylsulfonyl)methyl]phenyl}pyrimidin-2-amine]
